Values of other authors, collected in patent publication US20040048853A1, “Compounds, compositions, and methods” (priority 2002, published 2004).

System: A549 cells
For `NC(=O)NO` [hydroxyurea], the GI50 is listed as 500 µM.
In the case of `COc1cccc2c1C(=O)c1c(O)c3c(c(O)c1C2=O)C[C@@](O)(C(=O)CO)C[C@@H]3O[C@H]1C[C@H](N)[C@H](O)[C@H](C)O1` [doxorubicin], the GI50 is listed as 0.063 µM.
In the case of `O=c1[nH]cc(F)c(=O)[nH]1` [5-fluorouracil], the GI50 is given as 1 µM.
In the case of `CC(=O)O[C@H]1C(=O)[C@@]2(C)[C@H]([C@H](OC(=O)c3ccccc3)[C@]3(O)C[C@H](OC(=O)[C@H](O)[C@@H](NC(=O)c4ccccc4)c4ccccc4)C(C)=C1C3(C)C)[C@]1(OC(C)=O)CO[C@@H]1C[C@@H]2O` [paclitaxel], the GI50 is listed as 0.004 µM.
